Structures can show the parent of a compound that is named as a salt.

The term IC50 denotes the point on the concentration scale where inhibition reaches its midpoint.

The assay deals with PI3Kδ (p110δ/p85α) (Homo sapiens (Human), UniProt O00329). Put plainly: PI3Kδ Scintillation Proximity Assay (Example A3). The class given is biochemical. Conditions: 20 μM ATP, 20 μM PIP2, 4 nM PI3Kδ, read-out: PI3Kδ SPA IC50. As for the experimental part: [γ-^33P]ATP (10 mCi/mL) was purchased from PerkinElmer (Waltham, Mass.). […] PI3Kδ (p110δ/p85α) was purchased from Millipore (Bedford, Mass.). ATP, MgCl2, DTT, EDTA, MOPS and CHAPS were purchased from Sigma-Aldrich (St. Louis, Mo.). Wheat Germ Agglutinin (WGA) YSi SPA Scintillation Beads was purchased from GE healthcare life sciences (Piscataway, N.J.).
Sequence of PI3Kδ (p110δ/p85α) (O00329 whole entry): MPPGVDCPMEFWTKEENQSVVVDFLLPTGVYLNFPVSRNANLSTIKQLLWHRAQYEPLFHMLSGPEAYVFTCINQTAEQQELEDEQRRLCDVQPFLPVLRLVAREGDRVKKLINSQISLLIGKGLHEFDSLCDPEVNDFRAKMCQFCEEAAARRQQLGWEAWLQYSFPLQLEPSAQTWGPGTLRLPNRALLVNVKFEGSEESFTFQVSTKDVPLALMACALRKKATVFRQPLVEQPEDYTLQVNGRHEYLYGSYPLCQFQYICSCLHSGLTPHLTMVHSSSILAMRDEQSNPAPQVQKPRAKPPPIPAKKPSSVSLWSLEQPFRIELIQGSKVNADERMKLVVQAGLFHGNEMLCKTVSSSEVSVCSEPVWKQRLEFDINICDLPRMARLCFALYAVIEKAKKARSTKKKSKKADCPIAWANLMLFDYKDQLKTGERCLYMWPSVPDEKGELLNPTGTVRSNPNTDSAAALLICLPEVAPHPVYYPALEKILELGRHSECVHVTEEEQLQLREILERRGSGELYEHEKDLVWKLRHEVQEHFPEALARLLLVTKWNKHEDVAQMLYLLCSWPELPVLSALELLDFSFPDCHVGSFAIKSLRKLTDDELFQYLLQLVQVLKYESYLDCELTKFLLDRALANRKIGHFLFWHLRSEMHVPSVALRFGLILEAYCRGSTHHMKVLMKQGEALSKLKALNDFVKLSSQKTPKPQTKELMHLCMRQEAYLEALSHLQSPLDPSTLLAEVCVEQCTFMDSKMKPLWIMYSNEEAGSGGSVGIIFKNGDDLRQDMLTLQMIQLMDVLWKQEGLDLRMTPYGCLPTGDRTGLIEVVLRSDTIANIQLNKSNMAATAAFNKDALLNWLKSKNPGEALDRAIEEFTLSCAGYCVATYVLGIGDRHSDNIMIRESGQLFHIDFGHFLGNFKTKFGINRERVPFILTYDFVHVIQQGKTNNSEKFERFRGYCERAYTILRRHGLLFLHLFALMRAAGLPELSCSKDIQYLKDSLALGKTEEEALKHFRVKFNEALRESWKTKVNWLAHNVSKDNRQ
Sequence of PI3Kδ (p110δ/p85α) (P27986 whole entry partner): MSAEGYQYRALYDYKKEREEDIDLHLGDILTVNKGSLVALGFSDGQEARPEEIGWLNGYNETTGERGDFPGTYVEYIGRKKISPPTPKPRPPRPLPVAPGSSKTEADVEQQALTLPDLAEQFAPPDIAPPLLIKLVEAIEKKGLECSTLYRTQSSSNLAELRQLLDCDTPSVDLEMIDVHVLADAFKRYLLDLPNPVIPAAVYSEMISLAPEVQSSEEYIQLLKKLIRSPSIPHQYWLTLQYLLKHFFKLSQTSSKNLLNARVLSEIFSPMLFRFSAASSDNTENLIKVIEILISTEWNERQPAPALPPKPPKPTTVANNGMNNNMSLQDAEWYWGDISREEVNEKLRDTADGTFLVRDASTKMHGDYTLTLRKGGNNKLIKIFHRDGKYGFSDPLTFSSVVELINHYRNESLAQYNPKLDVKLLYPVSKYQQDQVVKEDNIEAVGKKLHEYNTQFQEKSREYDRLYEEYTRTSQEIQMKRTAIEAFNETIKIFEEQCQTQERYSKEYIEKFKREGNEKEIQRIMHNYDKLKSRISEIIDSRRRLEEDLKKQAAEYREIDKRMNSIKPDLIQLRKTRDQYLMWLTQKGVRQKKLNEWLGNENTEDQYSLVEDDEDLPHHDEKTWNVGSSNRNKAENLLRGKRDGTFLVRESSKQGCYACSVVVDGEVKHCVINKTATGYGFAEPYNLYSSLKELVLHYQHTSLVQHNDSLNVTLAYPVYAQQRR
The kinase reaction was conducted in polystyrene 384-well matrix white plate from Thermo Fisher Scientific in a final volume of 25 μL. Inhibitors were first diluted serially in DMSO and added to the plate wells before the addition of other reaction components. The final concentration of DMSO in the assay was 0.5%. The PI3K assays were carried out at room temperature in 20 mM MOPS, pH 6.7, 10 mM MgCl2, 5 mM DTT and CHAPS 0.03%. Reactions were initiated by the addition of ATP, the final reaction mixture consisted of 20 μM PIP2, 20 μM ATP, 0.2 μCi [γ-^33P] ATP, 4 nM PI3Kδ. […] 25 mM EDTA, 400 μM ATP. The final concentration of SPA beads was 1.0 mg/mL. After the plate sealing, plates were shaken overnight at room temperature and centrifuged at 1800 rpm for 10 minutes, the radioactivity of the product was determined by scintillation counting on Topcount (PerkinElmer). IC50 determination was performed by fitting the curve of percent control activity versus the log of the inhibitor concentration using the GraphPad Prism 3.0 software.

With `CCOc1c(C(C)n2nc(C)c3c(N)ncnc32)cc(Cl)c(C#N)c1-c1ccc(C(=O)N(C)C)nc1` (racemic) [Example 44, 5-(3-(1-(4-amino-3-methyl-1H-pyrazolo[3,4-d]pyrimidin-1-yl)ethyl)-5-chloro-6-cyano-2-ethoxyphenyl)-N,N-dimethylpicolinamide], the IC50 is < 10 nM.

Consider `COc1c(C(C)n2nc(C)c3c(N)ncnc32)cc(Cl)c(F)c1C1CN(CCO)C1` (racemic) [Example 71, 2-(3-{3-[1-(4-Amino-3-methyl-1H-pyrazolo[3,4-d]pyrimidin-1-yl)ethyl]-5-chloro-6-fluoro-2-methoxyphenyl}azetidin-1-yl)ethanol], for which the IC50 was < 10 nM.

On to `CCOc1c(C(C)n2nc(C)c3c(N)ncnc32)cc(Cl)c(C)c1C1CN(CCO)C1` (racemic) [Example 95, 2-(3-{3-[1-(4-Amino-3-methyl-1H-pyrazolo[3,4-d]pyrimidin-1-yl)ethyl]-5-chloro-2-ethoxy-6-methylphenyl}azetidin-1-yl)ethanol bis(trifluoroacetate)], for which the IC50 is < 10 nM.

Turning to `CCOc1c(C(C)n2nc(C)c3c(N)ncnc32)cc(Cl)c(F)c1C1CN(CC(C)(C)O)C1` (racemic) [Example 140, 1-(3-{3-[1-(4-Amino-3-methyl-1H-pyrazolo[3,4-d]pyrimidin-1-yl)ethyl]-5-chloro-2-ethoxy-6-fluorophenyl}azetidin-1-yl)-2-methylpropan-2-ol], the IC50 is < 10 nM.

Take `CCOc1c(C(C)n2nc(C)c3c(N)ncnc32)cc(Cl)c(F)c1C1CN(CC(F)(F)F)C1` (racemic) [Example 141, 1-(1-{5-Chloro-2-ethoxy-4-fluoro-3-[1-(2,2,2-trifluoroethyl)azetidin-3-yl]phenyl}ethyl)-3-methyl-1H-pyrazolo[3,4-d]pyrimidin-4-amine]: the IC50 was < 10 nM.

Consider `COc1c(C(C)n2nc(C)c3c(N)ncnc32)cc(Cl)c(C)c1C1CCN(C)CC1` (racemic) [Example 163, 1-{1-[5-Chloro-2-methoxy-4-methyl-3-(1-methylpiperidin-4-yl)phenyl]ethyl}-3-methyl-1H-pyrazolo[3,4-d]pyrimidin-4-amine], for which the IC50 was < 10 nM.

For `COc1c(C(C)n2nc(C)c3c(N)ncnc32)cc(Cl)c(C)c1C1CCN(CC(C)(C)O)CC1` (racemic) [Example 164, 1-(4-{3-[1-(4-Amino-3-methyl-1H-pyrazolo[3,4-d]pyrimidin-1-yl)ethyl]-5-chloro-2-methoxy-6-methylphenyl}piperidin-1-yl)-2-methylpropan-2-ol], the IC50 is < 10 nM.

Turning to `CCOc1c(C(C)n2nc(C)c3c(N)ncnc32)cc(Cl)c(C#N)c1-c1ccc(C(C)(C)O)nc1` (racemic) [Example 316, 4-[1-(4-amino-3-methyl-1H-pyrazolo[3,4-d]pyrimidin-1-yl)ethyl]-6-chloro-3-ethoxy-2-[6-(1-hydroxy-1-methylethyl)pyridin-3-yl]benzonitrile], the IC50 was < 10 nM.

Regarding `CCOc1c(C(C)n2nc(C)c3c(N)ncnc32)cc(Cl)c(C#N)c1N1CCCC1` (racemic) [Example 318, 4-[1-(4-amino-3-methyl-1H-pyrazolo[3,4-d]pyrimidin-1-yl)ethyl]-6-chloro-3-ethoxy-2-pyrrolidin-1-ylbenzo nitrile], the IC50 was < 10 nM.

Take `CCOc1c(C(C)n2nc(C)c3c(N)ncnc32)cc(Cl)c(C#N)c1N1CC(OC)C1` (racemic) [Example 319, 4-[1-(4-amino-3-methyl-1H-pyrazolo[3,4-d]pyrimidin-1-yl)ethyl]-6-chloro-3-ethoxy-2-(3-methoxyazetidin-1-yl)benzonitrile]: the IC50 is < 10 nM.

On to `CCOc1c(C(C)n2nc(C)c3c(N)ncnc32)cc(C)c(C#N)c1C1CN(C(C)C)C1` (racemic) [Example 320, 4-[1-(4-amino-3-methyl-1H-pyrazolo[3,4-d]pyrimidin-1-yl)ethyl]-3-ethoxy-2-(1-isopropylazetidin-3-yl)-6-methylbenzonitrile], for which the IC50 is < 10 nM.

Turning to `COc1c(C(C)n2nc(C)c3c(N)ncnc32)cc(Cl)c(C)c1-c1cnn(CCO)c1` (single isomer, unassigned) [20 (1st peak), 2-(4-(3-(1-(4-Amino-3-methyl-1H-pyrazolo[3,4-d]pyrimidin-1-yl)ethyl)-5-chloro-2-methoxy-6-methylphenyl)-1H-pyrazol-1-yl)ethanol], the IC50 is < 10 nM.

For the compound `CCOc1c(C(C)n2nc(C)c3c(N)ncnc32)cc(C)c(C#N)c1C1CN(C(=O)C(C)(C)O)C1` (single isomer, unassigned) [322 (1st peak), 4-[1-(4-amino-3-methyl-1H-pyrazolo[3,4-d]pyrimidin-1-yl)ethyl]-3-ethoxy-2-[1-(2-hydroxy-2-methylpropanoyl)azetidin-3-yl]-6-methylbenzonitrile], the IC50 is < 10 nM.

As to `COc1c(C(C)n2nc(C)c3c(N)ncnc32)cc(Cl)c(C)c1C1CNC(=O)CO1` (single isomer, unassigned) [324 (2nd peak), 6-{3-[1-(4-Amino-3-methyl-1H-pyrazolo[3,4-d]pyrimidin-1-yl)ethyl]-5-chloro-2-methoxy-6-methylphenyl}morpholin-3-one], the IC50 was < 10 nM.

For the compound `COc1c(C(C)n2nc(C)c3c(N)ncnc32)cc(Cl)c(C)c1C1CN(C(C)C)C1` (single isomer, unassigned) [Example 1, 1-{1-[5-Chloro-3-(1-isopropylazetidin-3-yl)-2-methoxy-4-methylphenyl]ethyl}-3-methyl-1H-pyrazolo[3,4-d]pyrimidin-4-amine bis(trifluoroacetate)], the IC50 was < 10 nM.

`COc1c(C(C)n2nc(C)c3c(N)ncnc32)cc(Cl)c(C)c1-c1ccc(C(=O)N(C)C)c(F)c1` (single isomer, unassigned) [Example 21, 3′-[1-(4-Amino-3-methyl-1H-pyrazolo[3,4-d]pyrimidin-1-yl)ethyl]-5′-chloro-3-fluoro-2′-methoxy-N,N,6′-trimethylbiphenyl-4-carboxamide trifluoroacetate]: the IC50 was < 10 nM.

For the compound `CNC(=O)c1ccc(-c2c(C)c(Cl)cc(C(C)n3nc(C)c4c(N)ncnc43)c2OC)cc1F` (single isomer, unassigned) [Example 22, 3′-[1-(4-Amino-3-methyl-1H-pyrazolo[3,4-d]pyrimidin-1-yl)ethyl]-5′-chloro-3-fluoro-2′-methoxy-N,6′-dimethylbiphenyl-4-carboxamide trifluoroacetate], the IC50 was < 10 nM.

Consider `COc1c(C(C)n2nc(C)c3c(N)ncnc32)cc(Cl)c(C)c1-c1cncc(C(=O)N(C)C)c1` (single isomer, unassigned) [Example 65, 5-{3-[1-(4-amino-3-methyl-1H-pyrazolo[3,4-d]pyrimidin-1-yl)ethyl]-5-chloro-2-methoxy-6-methylphenyl}-N,N-dimethylnicotinamide], for which the half-maximal inhibitory concentration (IC50) was < 10 nM.

For the compound `CCOc1c(C(C)n2nc(C)c3c(N)ncnc32)cc(Cl)c(C)c1C1CN(C(C)C)C1` (single isomer, unassigned) [Example 94, 1-{1-[5-Chloro-2-ethoxy-3-(1-isopropylazetidin-3-yl)-4-methylphenyl]ethyl}-3-methyl-1H-pyrazolo[3,4-d]pyrimidin-4-amine bis(trifluoroacetate)], the IC50 was < 10 nM.

Regarding `COc1c(C(C)n2nc(C)c3c(N)ncnc32)cc(Cl)c(C)c1C1CN(CCO)C1` (single isomer, unassigned) [Example 104, 2-(3-{3-[1-(4-Amino-3-methyl-1H-pyrazolo[3,4-d]pyrimidin-1-yl)ethyl]-5-chloro-2-methoxy-6-methylphenyl}azetidin-1-yl)ethanol], the IC50 is < 10 nM.

For `COc1c(C(C)n2nc(C)c3c(N)ncnc32)cc(Cl)c(C)c1C1CN(CC#N)C1` (single isomer, unassigned) [Example 105, (3-{3-[1-(4-Amino-3-methyl-1H-pyrazolo[3,4-d]pyrimidin-1-yl)ethyl]-5-chloro-2-methoxy-6-methylphenyl}azetidin-1-yl)acetonitrile], the IC50 was < 10 nM.

`COc1c(C(C)n2nc(C)c3c(N)ncnc32)cc(Cl)c(C)c1C1CN(CC(F)(F)F)C1` (single isomer, unassigned) [Example 108, 1-(1-{5-Chloro-2-methoxy-4-methyl-3-[1-(2,2,2-trifluoroethyl)azetidin-3-yl]phenyl}ethyl)-3-methyl-1H-pyrazolo[3,4-d]pyrimidin-4-amine]: the IC50 is < 10 nM.

Take `COc1c(C(C)n2nc(C)c3c(N)ncnc32)cc(Cl)c(C)c1C1CN(C[C@@H](O)C(F)(F)F)C1` (single isomer, unassigned) [Example 115]: the IC50 is < 10 nM.

Consider `COc1c(C(C)n2nc(C)c3c(N)ncnc32)cc(Cl)c(C)c1C1CN(C(=O)[C@H](C)O)C1` (single isomer, unassigned) [Example 118], for which the IC50 was < 10 nM.

With `COc1c(C(C)n2nc(C)c3c(N)ncnc32)cc(Cl)c(C)c1C1CN(C(=O)[C@@H](C)O)C1` (single isomer, unassigned) [Example 121, trifluoroacetate], the IC50 was < 10 nM.

These data come from patent US9932341B2, “Use of pyrazolopyrimidine derivatives for the treatment of PI3K-delta related disorders” (Incyte Corporation, priority 2013, dated 2018).
